Experimental data from patent US20250084097A1, “MACROCYCLIC AMIDE COMPOUNDS AND APPLICATION THEREOF” (Medshine Discovery Inc., priority 2021, published 2025).

Key:
EGFR (L858R/T790M/C797S) = molecular target: T1, EGFR (L858R/T790M/C797S) (Homo sapiens, UniProt P00533, C797S/L858R/T790M); assay: Kinase inhibitory activity, 33P-ATP filtration-binding (Reaction Biology Corp.); type: biochemical; conditions: ATP 100 μM; read-out: Kinase half-maximal inhibition concentration IC50 EGFR(L858R/T790M/C797S)
T1 construct: Reaction Biology Corp. (assay performed there)
T1 sequence (P00533 25-1210 T790M/C797S/L858R): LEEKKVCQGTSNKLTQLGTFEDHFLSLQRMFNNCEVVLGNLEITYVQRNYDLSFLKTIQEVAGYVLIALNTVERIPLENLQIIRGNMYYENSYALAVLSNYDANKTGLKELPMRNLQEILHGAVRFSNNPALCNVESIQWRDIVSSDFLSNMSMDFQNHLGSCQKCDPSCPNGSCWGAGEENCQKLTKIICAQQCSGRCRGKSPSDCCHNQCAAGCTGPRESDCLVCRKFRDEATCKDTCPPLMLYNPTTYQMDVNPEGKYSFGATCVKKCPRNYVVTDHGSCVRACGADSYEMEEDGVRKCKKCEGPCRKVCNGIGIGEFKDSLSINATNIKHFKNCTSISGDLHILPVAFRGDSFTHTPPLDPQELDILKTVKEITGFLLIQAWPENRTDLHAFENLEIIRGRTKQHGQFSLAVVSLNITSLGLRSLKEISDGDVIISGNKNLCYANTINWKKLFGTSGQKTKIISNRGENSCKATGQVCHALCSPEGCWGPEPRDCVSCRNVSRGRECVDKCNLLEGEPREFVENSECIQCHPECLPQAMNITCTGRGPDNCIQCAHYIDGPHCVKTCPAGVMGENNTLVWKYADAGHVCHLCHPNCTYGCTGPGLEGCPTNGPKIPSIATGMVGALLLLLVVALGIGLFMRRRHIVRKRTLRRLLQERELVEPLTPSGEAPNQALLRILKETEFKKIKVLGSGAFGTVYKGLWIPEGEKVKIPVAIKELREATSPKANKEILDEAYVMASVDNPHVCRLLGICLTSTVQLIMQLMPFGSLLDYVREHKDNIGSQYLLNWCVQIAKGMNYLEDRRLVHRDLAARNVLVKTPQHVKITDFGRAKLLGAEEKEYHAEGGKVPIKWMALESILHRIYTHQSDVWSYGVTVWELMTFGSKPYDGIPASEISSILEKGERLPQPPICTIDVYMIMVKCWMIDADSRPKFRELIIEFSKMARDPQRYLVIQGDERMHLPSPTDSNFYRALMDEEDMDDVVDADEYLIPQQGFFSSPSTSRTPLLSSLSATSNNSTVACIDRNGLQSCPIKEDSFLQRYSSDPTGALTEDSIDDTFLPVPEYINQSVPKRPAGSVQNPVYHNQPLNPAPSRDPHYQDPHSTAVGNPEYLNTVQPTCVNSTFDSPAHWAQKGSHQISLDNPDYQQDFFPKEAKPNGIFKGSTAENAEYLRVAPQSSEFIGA
Protocol: (§1) Compound assay for kinase inhibitory activity against EGFR (L858R/T790M/C797S), EGFR (del19-E746-A750/T790M/C797S), and EGFR (WT) was done at Reaction Biology Corp. In reaction buffer (20 mM Hepes (pH 7.5), 10 mM magnesium chloride (MgCl2), 1 mM ethylenebis(oxyethylenenitrilo)tetraacetic acid (EGTA), 0.02% polyethylene glycol monododecyl ether (Brij35), 0.02 mg/ml BSA, 0.1 mM sodium vanadate (Na3VO4), 2 mM dithiothreitol (DTT), 1% DMSO), a certain concentration of substances, coenzyme factors, kinases and test compounds (10 doses, 3-fold serial dilutions, 2% DMSO final concentration) were added in sequence, and mixed well. The mixture was incubated at room temperature for 20 minutes. A certain concentration of ^33P-ATP was added to the reaction mixture to initiate reaction, followed by incubation at room temperature for 120 minutes. Finally, the radioactivity of the reactants was detected by filtration-binding method. The final kinase activity was expressed as the ratio of the remaining kinase activity of the test sample to the kinase activity of the DMSO control group. The dose-response relationship curve was fitted and IC50 was calculated using GraphPad software.

EGFR (WT) = molecular target: T2, EGFR (WT) (Homo sapiens, UniProt P00533); assay: as above; type: biochemical; conditions: ATP 100 μM; read-out: Kinase half-maximal inhibition concentration IC50 EGFR(WT)
T2 construct: Reaction Biology Corp. (assay performed there)
T2 sequence (P00533 25-1210): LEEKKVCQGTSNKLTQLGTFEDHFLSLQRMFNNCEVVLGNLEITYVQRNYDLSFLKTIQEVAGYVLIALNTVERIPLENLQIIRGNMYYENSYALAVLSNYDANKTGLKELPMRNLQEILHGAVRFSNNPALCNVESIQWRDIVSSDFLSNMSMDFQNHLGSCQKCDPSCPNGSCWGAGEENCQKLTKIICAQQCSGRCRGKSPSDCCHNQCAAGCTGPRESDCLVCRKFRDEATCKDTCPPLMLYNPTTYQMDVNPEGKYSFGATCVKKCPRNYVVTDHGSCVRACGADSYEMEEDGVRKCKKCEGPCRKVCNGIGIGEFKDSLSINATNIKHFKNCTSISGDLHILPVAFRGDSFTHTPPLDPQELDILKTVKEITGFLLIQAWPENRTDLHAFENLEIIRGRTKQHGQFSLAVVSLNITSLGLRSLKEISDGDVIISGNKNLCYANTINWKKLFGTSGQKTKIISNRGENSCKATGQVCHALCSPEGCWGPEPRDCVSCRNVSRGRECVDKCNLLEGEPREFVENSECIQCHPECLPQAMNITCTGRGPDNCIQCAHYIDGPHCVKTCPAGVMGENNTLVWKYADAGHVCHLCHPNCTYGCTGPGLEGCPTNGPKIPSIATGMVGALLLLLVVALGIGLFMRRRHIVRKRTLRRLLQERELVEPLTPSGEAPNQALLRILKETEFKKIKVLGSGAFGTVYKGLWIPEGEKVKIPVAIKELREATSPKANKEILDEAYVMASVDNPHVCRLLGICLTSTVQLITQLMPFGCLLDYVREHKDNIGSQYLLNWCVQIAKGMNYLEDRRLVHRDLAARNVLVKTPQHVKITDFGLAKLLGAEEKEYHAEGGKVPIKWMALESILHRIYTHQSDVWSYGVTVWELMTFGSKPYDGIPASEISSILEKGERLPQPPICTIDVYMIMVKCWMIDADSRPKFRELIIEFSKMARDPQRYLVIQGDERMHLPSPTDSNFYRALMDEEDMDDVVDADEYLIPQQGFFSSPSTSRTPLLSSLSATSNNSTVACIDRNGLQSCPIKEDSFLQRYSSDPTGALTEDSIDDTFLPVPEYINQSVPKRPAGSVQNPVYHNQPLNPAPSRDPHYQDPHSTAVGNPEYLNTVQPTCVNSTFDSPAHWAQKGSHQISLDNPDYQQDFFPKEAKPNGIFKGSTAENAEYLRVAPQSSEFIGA
Protocol: as §1

[1] = molecular target: T3, EGFR (del19-E746-A750/T790M/C797S) (Homo sapiens, UniProt P00533, C797S/DEL746-750/T790M); assay: as above; type: biochemical; conditions: ATP 100 μM; read-out: Kinase half-maximal inhibition concentration IC50 EGFR(del19-E746-A750/T790M/C797S)
T3 construct: Reaction Biology Corp. (assay performed there)
T3 sequence (P00533 with tags, fused parts or gaps DEL746-750/T790M/C797S): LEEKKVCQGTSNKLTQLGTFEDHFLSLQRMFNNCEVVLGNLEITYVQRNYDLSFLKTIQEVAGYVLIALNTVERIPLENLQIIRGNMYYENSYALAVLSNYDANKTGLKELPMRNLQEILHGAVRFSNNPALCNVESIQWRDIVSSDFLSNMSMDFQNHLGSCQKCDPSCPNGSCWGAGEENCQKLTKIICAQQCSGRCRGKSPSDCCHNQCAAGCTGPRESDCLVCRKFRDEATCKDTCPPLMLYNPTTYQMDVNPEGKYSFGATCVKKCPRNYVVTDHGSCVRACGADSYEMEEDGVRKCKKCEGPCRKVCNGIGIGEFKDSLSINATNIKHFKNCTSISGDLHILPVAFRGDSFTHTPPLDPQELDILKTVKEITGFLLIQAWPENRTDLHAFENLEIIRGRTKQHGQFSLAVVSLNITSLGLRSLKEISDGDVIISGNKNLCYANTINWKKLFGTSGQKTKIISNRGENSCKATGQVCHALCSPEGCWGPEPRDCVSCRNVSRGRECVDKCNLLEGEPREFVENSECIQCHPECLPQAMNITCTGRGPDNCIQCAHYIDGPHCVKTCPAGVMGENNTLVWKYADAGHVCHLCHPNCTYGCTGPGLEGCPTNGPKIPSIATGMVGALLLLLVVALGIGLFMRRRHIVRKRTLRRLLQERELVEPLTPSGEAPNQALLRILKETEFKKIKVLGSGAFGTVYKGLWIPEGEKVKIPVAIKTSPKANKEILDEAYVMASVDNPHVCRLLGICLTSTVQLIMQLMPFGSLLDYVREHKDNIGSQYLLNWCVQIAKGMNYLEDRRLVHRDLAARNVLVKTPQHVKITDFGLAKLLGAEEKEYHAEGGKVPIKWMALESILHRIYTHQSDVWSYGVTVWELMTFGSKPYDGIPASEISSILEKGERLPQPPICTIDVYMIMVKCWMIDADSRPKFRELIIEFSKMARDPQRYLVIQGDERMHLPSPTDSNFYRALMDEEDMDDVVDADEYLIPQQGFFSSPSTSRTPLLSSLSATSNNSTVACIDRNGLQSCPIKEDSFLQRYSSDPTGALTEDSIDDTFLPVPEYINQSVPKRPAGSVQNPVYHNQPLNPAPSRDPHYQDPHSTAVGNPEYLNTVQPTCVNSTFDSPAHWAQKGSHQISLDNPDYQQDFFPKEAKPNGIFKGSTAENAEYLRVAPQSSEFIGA
Protocol: as §1

[2] = molecular target: Ba/F3-FL-EGFR (del19-E746-A750/C797S) (Homo sapiens, UniProt P00533, DEL746-750/C797S, cells depend on it); assay: Cell proliferation inhibition, CellTiter-Glo; type: cell-based; conditions: 72 hours, read-out: Cell half-maximal inhibition concentration IC50 Ba/F3-FL-EGFR (del19-E746-A750/C797S)
Ba/F3-FL-EGFR (del19-E746-A750/C797S), sequence (P00533 with tags, fused parts or gaps DEL746-750/C797S): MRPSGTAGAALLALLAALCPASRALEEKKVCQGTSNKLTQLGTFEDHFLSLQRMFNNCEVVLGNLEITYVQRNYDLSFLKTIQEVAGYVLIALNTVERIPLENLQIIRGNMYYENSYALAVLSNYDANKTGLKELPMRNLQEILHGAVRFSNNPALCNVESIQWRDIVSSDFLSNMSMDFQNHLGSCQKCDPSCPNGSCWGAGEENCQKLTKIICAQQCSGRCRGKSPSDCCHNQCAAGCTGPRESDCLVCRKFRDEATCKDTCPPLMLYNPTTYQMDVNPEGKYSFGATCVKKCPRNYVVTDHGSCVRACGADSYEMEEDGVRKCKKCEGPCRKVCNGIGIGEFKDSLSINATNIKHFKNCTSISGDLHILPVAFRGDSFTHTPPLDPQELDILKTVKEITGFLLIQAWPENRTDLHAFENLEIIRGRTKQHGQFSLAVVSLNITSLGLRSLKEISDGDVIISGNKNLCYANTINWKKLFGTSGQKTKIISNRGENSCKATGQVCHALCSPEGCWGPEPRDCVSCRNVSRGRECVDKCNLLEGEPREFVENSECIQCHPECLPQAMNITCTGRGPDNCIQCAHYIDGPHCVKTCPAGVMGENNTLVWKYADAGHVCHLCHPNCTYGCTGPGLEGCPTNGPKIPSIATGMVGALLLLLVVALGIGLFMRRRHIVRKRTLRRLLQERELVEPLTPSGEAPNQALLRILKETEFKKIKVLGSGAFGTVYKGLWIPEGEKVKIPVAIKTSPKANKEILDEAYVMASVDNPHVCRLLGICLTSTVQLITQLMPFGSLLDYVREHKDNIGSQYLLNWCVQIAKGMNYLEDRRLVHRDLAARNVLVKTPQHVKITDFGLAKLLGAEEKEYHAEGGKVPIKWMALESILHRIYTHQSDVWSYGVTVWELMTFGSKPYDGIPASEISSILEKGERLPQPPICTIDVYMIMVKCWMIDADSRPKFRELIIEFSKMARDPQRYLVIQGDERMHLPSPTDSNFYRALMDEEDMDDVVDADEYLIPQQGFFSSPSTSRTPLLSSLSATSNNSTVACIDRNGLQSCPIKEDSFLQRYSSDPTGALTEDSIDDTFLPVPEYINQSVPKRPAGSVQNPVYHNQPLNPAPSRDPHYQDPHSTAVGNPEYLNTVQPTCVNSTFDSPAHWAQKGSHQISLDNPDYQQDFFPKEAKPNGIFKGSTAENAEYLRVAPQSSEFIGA
Protocol: AdenosineTri-Phosphate (ATP) is an energy carrier shared by various life activities in nature, and is the smallest unit of energy storage and transfer. The CellTiter-Glo™ living cell assay kit uses luciferase as a detector, and luciferase requires the participation of ATP in the process of luminescence. CellTiter-Glo™ reagent is added to a cell culture medium, and the luminescence value is measured. The light signal is directly proportional to the amount of ATP in the system, and ATP is positively correlated with the number of living cells. Therefore, cell proliferation can be detected by detecting ATP content with the CellTiter-Glo kit. In this assay, the cell lines were Ba/F3-FL-EGFR (L858R/T790M/C797S), Ba/F3-FL-EGFR (WT), Ba/F3-FL-EGFR (L858R), Ba/F3-FL-EGFR (del19-S752-I759), Ba/F3-FL-EGFR (del19-E746-A750/T790M/C797S), Ba/F3-FL-EGFR (L858R/T790M), Ba/F3-FL-EGFR (del19-E746-A750/T790M), Ba/F3-TEL-EGFR (L858R/C797S), Ba/F3-FL-EGFR (del19-E746-A750/C797S) stably transfected cell lines.
The cell lines were cultured in an incubator at 37° C. and 5% CO2. The cells were periodically passaged, and cells in logarithmic growth phase were taken for plating.
a) DMSO was used to prepare a 10 mM solution of the compound to be tested, and then the compound to be tested was diluted to 0.3 or 1 mM with DMSO.
b) Preparation of 1000× compound storage plate (tube): DMSO was used to dilute by 3-fold gradient from the highest concentration to the lowest concentration, with a total of 9 concentrations.
c) Preparation of 20× compound working solution: 49 μL of cell culture medium was added to a flat-bottomed 96-well transparent drug plate, and 1 μL of compound was pipetted from the 1000× compound storage plate to the cell culture medium of the 96-well transparent drug plate. 1 μL of DMSO was added to the vehicle control. After adding compound or DMSO, the well content was mixed to uniform by aspiration and expelling with pipette.
a) Cells were stained with trypan blue and viable cells were counted. The cell viability rate was required to be above 90%.
b) 95 μL of cell suspension (2000 cells/well) was added to each well of the compound detection cell plate, and culture medium without cells (containing 0.1% DMSO) was added to the Min control well.
c) Dosing in the compound detection cell plate: 5 μL of 20× compound working solution was added to the cell culture plate. 5 μL of DMSO-cell culture mixture was added to the Max control. The final concentration of DMSO was 0.1%.
d) The culture plate was incubated in an incubator at 37° C., 5% CO2 for 72 hours.
Cell proliferation inhibition rate (Inhibition Rate) data were processed using the following formula:
Inhibition Rate (Inh %)=100−(RLUDrug−RLUMin)/(RLUMax−RLUMin)*100%.
The inhibition rates corresponding to different concentrations of compounds were calculated, and then GraphPad Prism software was used to draw the inhibition rate curve and the IC50 value was calculated.

[3] = Body weight of animals in the in vivo efficacy assay; conditions: for Body weight of the mice compared to the control group (tolerance): 10 days of continuous administration, 10 mg/kg and 25 mg/kg
Protocol: Dosage according to mouse body weight: 10 μL/g. If the body weight decreases by more than 20%, the dosing regimen was adjusted accordingly.
The formulation and any modifications of this assay protocol were evaluated and approved by the Laboratory Animal Welfare Ethics Committee of the testing institution. The health status and death of animals were checked every day. Routine inspections included tumor growth, activity, diet, body weight, eyes, hair and other abnormal behaviors of animals. Tumor volume and body weight were measured three times a week (Monday, Wednesday and Friday). The tumor volume was measured with a vernier caliper, and the formula was TV=0.5 a×b^2, where a is the long diameter of a tumor and b is the short diameter of a tumor.
The body weight of assay animals was used as a reference index to indirectly determine drug toxicity.

[4] = 10 mg/kg/bid, day 0 after administration
[5] = 10 mg/kg/bid, day 3 after administration
[6] = 10 mg/kg/bid, day 5 after administration
[7] = 10 mg/kg/bid, day 7 after administration
[8] = 10 mg/kg/bid, day 10 after administration
[9] = 25 mg/kg/bid, day 0 after administration
[10] = 25 mg/kg/bid, day 3 after administration
[11] = 25 mg/kg/bid, day 5 after administration
[12] = 25 mg/kg/bid, day 7 after administration
[13] = 25 mg/kg/bid, day 10 after administration

Q: Which IC50 (EGFR (L858R/T790M/C797S)) does the source give for `Cc1cc2cc(n1)-c1cnn(C)c1OC[C@H]1CC[C@H](C1)CN1/C(=N/C2=O)Nc2ccc(N=S(C)(C)=O)cc21` (single isomer, unassigned) [WX-027A] here?
A: Its IC50 is 1.82 nM.

Q: What about the IC50 (EGFR (WT)) of the same molecule?
A: Its IC50 is 55.8 nM.

Q: And the IC50 [1]?
A: Its IC50 is 0.093 nM.

Q: And the GI50 [2]?
A: Its GI50 is 4.7 nM.

Q: And the Average body weight [3, 4]?
A: The Average body weight was 21.7 g.

Q: What about the Average body weight [3, 5] of the same molecule?
A: Its Average body weight is 21.9 g.

Q: And the Average body weight [3, 6]?
A: Its Average body weight is 22.1 g.

Q: What about the Average body weight [3, 7] of the same molecule?
A: Its Average body weight is 22.1 g.

Q: What about the Average body weight [3, 8] of the same molecule?
A: Its Average body weight is 22.2 g.

Q: What about the Average body weight [3, 9] of the same molecule?
A: The Average body weight was 21.0 g.

Q: What about the Average body weight [3, 10] of the same molecule?
A: Its Average body weight is 21.5 g.

Q: And the Average body weight [3, 11]?
A: The Average body weight was 21.6 g.

Q: What about the Average body weight [3, 12] of the same molecule?
A: Its Average body weight is 21.4 g.

Q: And the Average body weight [3, 13]?
A: The Average body weight was 21.8 g.

Q: And the “Body weight of the mice compared to the control group (tolerance)” value [3]?
A: Its value is “no significant difference”.

Q: Which IC50 (EGFR (L858R/T790M/C797S)) does the source give for `Cc1cc2cc(n1)-c1cnn(C)c1OCCC[C@@H](C)CN1/C(=N/C2=O)Nc2ccc(N=S(C)(C)=O)c(Cl)c21` [WX-019] here?
A: The IC50 was 3.55 nM.

Q: And the IC50 (EGFR (WT))?
A: The IC50 was 212 nM.

Q: And the IC50 [1]?
A: The IC50 was 0.139 nM.

Q: What about the GI50 [2] of the same molecule?
A: Its GI50 is 6.5 nM.

Q: What about the Average body weight [3, 4] of the same molecule?
A: The Average body weight was 20.6 g.

Q: And the Average body weight [3, 5]?
A: Its Average body weight is 20.7 g.

Q: What about the Average body weight [3, 6] of the same molecule?
A: Its Average body weight is 20.8 g.

Q: And the Average body weight [3, 7]?
A: Its Average body weight is 20.7 g.

Q: What about the Average body weight [3, 8] of the same molecule?
A: Its Average body weight is 20.9 g.

Q: And the Average body weight [3, 9]?
A: The Average body weight was 22.5 g.

Q: And the Average body weight [3, 10]?
A: Its Average body weight is 23.4 g.

Q: What about the Average body weight [3, 11] of the same molecule?
A: The Average body weight was 23.0 g.

Q: What about the Average body weight [3, 12] of the same molecule?
A: The Average body weight was 22.8 g.

Q: And the Average body weight [3, 13]?
A: The Average body weight was 23.3 g.

Q: And the “Body weight of the mice compared to the control group (tolerance)” value [3]?
A: The value was “no significant difference”.
